Common to all, as to format: in vivo
Test [1] deals with bed bugs (Cimex lectularius). Nature of the test: Bed bug aggregation (attraction) assay, Petri dish arena with treated and control filter paper tents (Example 1). The following applies: 5 microliters, one hour, five bed bugs, average of two tests. On the procedure:
Attraction Assays: Assay arenas were made from 150×15 mm plastic Petri dishes (VWR#25384-326) containing a 125 mm piece off qualitative filter paper (VWR#28320-100) glued to the bottom using 3M Super 77® multipurpose spray adhesive. A 80 mm hole was cut into the lid and a 500 um mesh Nytex® screen (Bioquip, #7293B) was glued to cover the opening using quick epoxy. Fresh bottom dishes were used in each assay. For these experiments 2.4 cm filter paper folded to create a tent were treated with either a control treatment (10 microliters of silicone oil for aldehyde controls and 5 microliters of deionized water for acid controls) or 10 microliters of the experimental test treatment diluted in silicone oil (aldehydes) or 5 microliters of the experimental chemical diluted in deionized water (acids). Ten bed bugs per test were released into the assay arena for the aldehyde test treatments and controls, five bed bugs per test were released into the assay arena for the acid test treatments. Day cycling bed bugs (Cimex lectularius), 12 hour light: 12 hour dark (7 AM On: 7 PM Off) light cycle, were incubated and evaluated under normal room lighting conditions at room temperature. Readings were taken at 1 hour intervals from the release of bed bugs for 4 hours for aldehydes and one hour for acids, due to the quick volatility of the acids. The number of bed bugs under the control filter paper disk and the number of bed bugs under the test treatment filter paper disk were recorded. The test treatment was considered to be an attractant if the number of bed bugs under the experimental filter disk was greater than the number under the control filter disk. Table 1 below summarizes the experimental data, the experimental test treatments considered as attractants are in bold.

The subject of test [2] is bed bugs (Cimex lectularius). Briefly: Test arena gas assay, compounds dissolved in nonane (Example 5). From the text: A test arena was constructed from a 60×40×22 cm (L:W:H) polystyrene container. A 60×40 cm piece of filter paper was glued on the bottom to provide a walking surface for the bed bugs. At one end of the test arena, a triangular piece of plastic (16 cm high×25 cm long) was glued to the middle of the side and bottom of the container to create test zones of equal area on either side of the partition. On each side of this partition a piece of Tygon® tubing was inserted through a hole 7 cm above the bottom of each test zone to deliver a control gas to one side of the partition (control zone) and the experimental gas to the other side of the partition (experimental zone). The tubing was positioned to deliver the gases downward into the test zones with each outlet 6 cm above the filter paper glued to the bottom of the container. At the other end of the test arena, a 4 W night light was placed 35 cm above the bottom of the arena and regulated to a 12 hour light:12 hour dark (7 AM On: 7 PM Off) light cycle. Also placed adjacent to the night light was a small fan (Boston, cat#EHSDF) to create a gentle removal of gases from the distal part of the arena. Air released by the experimental and control gases was contained within their partitions and were gently drawn away from the respective air inputs, mixed within the arena and removed by the fan. This created a laminar flow where the bed bugs had opportunity to select either the experimental or control gas. Fifty bed bugs (Cimex lectularius) were entrapped within an inverted 90 mm Petri dish at a position furthest from the control and experimental zones until bed bugs were quiescent. Removal of the Petri dish started the experiment and readings were taken every hour for two hours. Data collected were number of bed bugs in the experimental, control and free arena zones. In addition, gas temperature, relative humidity, air flow rate, and percent CO2 data were collected. The experimental gas was considered to be an attractant if more bed bugs were in the experimental zone than in the control zone.
Determination of Bed Bug Aggregation Effect Using Hexenal, Butyric Acid, trans-2-Hexen-1-al Diethylacetal, Trimethylsilyl Butyrate or Methyl Butyrate Dissolved in an Alkane Solvent Using the test arena and methods described in Example 4, test treatments containing about 300 ppm of a pro-aldehyde compound, trans-2-hexen-1-al diethylacetal, dissolved in nonane, about 300 ppm of Hexenal dissolved in nonane, about 200 ppm of butyric acid dissolved in nonane and about 200 ppm of a pro-organic acid compound, trimethylsilyl butyrate or methyl butyrate, dissolved in nonane were prepared. Separate 100 micro liter pipettes (Drummond Wiretrol 100 μL) were filled with the test solutions. One end of each micro liter pipette was sealed with parafilm leaving one end of each open. […] An air tight lid was placed onto the plastic container and the container was installed in-line after humidity and temperature conditioning of the gas and before the gas entered the arena. The micro liter pipettes were weighed before and after use to determine the amount of the test compounds released. The control gas used for these experiments consisted of house compressed air.

The test system of test [3] is bed bugs (Cimex lectularius). Nature of the test: Bed bug aggregation assay, mixtures of Hexenal, Octenal and butyric acid (Example 3). The note with it: for Number of bed bugs under experimental (Exp) disk: H/O 75/25 120 ppm in silicone oil, BA about 100 ppm in deionized water, 5 microliters each, ten bed bugs, average of two tests. On the procedure: Attraction Assays: […] For this test, a mixture of Hexenal and Octenal (75:25 ratio) was diluted in silicone oil to provide about a 120 ppm solution. […] Readings were taken hourly for four hours from the release of bed bugs in the assay arena. The number of bed bugs under the control disk and the number of bed bugs under the experimental disk were recorded. The test chemical was considered to be an attractant if the number of bed bugs under the experimental filter disk was greater than the number under the control disk. Table 3 below summarizes the experimental data, the experimental test treatment considered as attractants are in bold.

In test [4] the test system is bed bugs (Cimex lectularius). Briefly: Test arena assay with experimental gas and control gas zones (Example 4). The note with it: after two hour exposure; fifty bed bugs; Hexenal/Octenal 75/25 at 73 nanograms/hour, butyric acid 3.097 micrograms/hour @ 100 mL/min air flow; CO2 50%; test gas 23-26 °C; control gas compressed air. From the text: A test arena was constructed from a 60×40×22 cm (L:W:H) polystyrene container. […] At one end of the test arena, a triangular piece of plastic (16 cm high×25 cm long) was glued to the middle of the side and bottom of the container to create test zones of equal area on either side of the partition. On each side of this partition a piece of Tygon® tubing was inserted through a hole 7 cm above the bottom of each test zone to deliver a control gas to one side of the partition (control zone) and the experimental gas to the other side of the partition (experimental zone). The tubing was positioned to deliver the gases downward into the test zones with each outlet 6 cm above the filter paper glued to the bottom of the container. […] Removal of the Petri dish started the experiment and readings were taken every hour for two hours. […] Air temperature was monitored with a high/low thermometer. […] Relative humidity was monitored using a high/low hygrometer placed in-line immediately before the gas entered the arena. […] The relationship between valve settings and air flow was determined and using this information, valve settings were determined that could deliver blended gases (air and CO2) at a flow rate of about 100 or about 200 ml/min. […]

SMILES strings stand for the structures.

Take `CCCC(=O)O` [Butyric acid, butyric acid]: the “Number of bed bugs under experimental (Exp) filter paper disk” value in test [1] (organic acid 10 ppm in deionized water) stood at 4; in test [1] (organic acid 50 ppm in deionized water), 2; in test [1] (organic acid 100 ppm in deionized water), 4; in test [1] (organic acid 1000 ppm in deionized water), 4; in test [1] (organic acid 10000 ppm in deionized water), 4. Besides, in test [2] (after two hour exposure, released from nonane solution at 150.0-184.8 nanograms/hour @ 100 mL/min air flow, test gas 21-22 °C, control gas compressed air), the “% Bed bugs in Experimental Zone” value was found to be 34.0%. In addition, the “Attraction of bed bugs to gaseous mixture” value in test [2] (test arena, two hour exposure, versus control gas) is “attracted”. Also, the “Number of bed bugs under experimental (Exp) disk” value is 4.5 in test [3] (1 Hour), 5.5 in test [3] (2 Hour), 4.5 in test [3] (3 Hour) and 5 in test [3] (4 Hours). In test [3] (H/O 75:25 120 ppm, butyric acid 100 ppm), the “Attraction of bed bugs to experimental filter disks” value is reported as “attracted”.

Consider `O=C=O` [CO2, carbon dioxide], for which, in test [4], the “% Bed bugs in Experimental Zone” value amounted to 76.0%.

The record behind these values is US20110044936A1, “Composition for Attracting Bed Bugs” (priority 2009, published 2011).
